In patent US20070154444A1, “Extracts from black yeast for whitening skin” (priority 2005, published 2007):

Tested on: UV-B induced tan of the skin
Assay: Whitening action: fading of UV-B induced tan on the backs of volunteer panelists, Minolta Chromameter reflectance
Format: in vivo, human
Settings: FIG. 5; 1% extract or 2% kojic acid in Example 4 composition; 2 mg/cm^2 once a day; nine panelists
Method: A comparative study is done to determine the whitening efficacy of an Exophiala mansonii—derived enzyme extract in comparison to the efficacy of a known tyrosinase inhibitor, kojic acid. More specifically, the study was designed to study the lightening effect of these materials (reduction in tanning) using the fading of UV-B induced tan as a marker. Two samples are prepared. The first sample contains the composition described in Example 4. The second sample has the same composition as that described in Example 4 except that 2% kojic acid is substituted for the 1 % Exophiala mansonii enzyme extract. Nine volunteers participate in the study. […] Tanning is observed for six days after irradiation at which point color measurements are made using a Minolta Chromameter which measures the difference in reflectance of the skin, L. The change in the value of the difference in reflectance, ΔL*, is measured against a baseline skin color value of untreated irradiated skin measured on day 6. […] Chromameter readings are obtained on day 6, 8, 11, 13 and 15. The observed reflectance values for all the time points are recorded, and the area under the curve for each test site was calculated. The Whitening Factor is calculated as the area under the curve of the treated site subtracted from the untreated site, and is shown in FIG. 5.

O=c1cc(CO)occ1O [kojic acid]
Whitening Factor (area under the curve of the treated site subtracted from the untreated site): 1.8
